melting point [°C] | Structure (SMILES)
258 to 259 | O=C1CC(c2ccc(O)cc2O)Oc2cc(O)cc(O)c21 (stereo not drawn)
209 to 211 | CN(C)CC=CC(=O)Nc1ccc2ncc(C#N)c(Nc3cccc(Br)c3)c2c1
293 to 296 | O=C(Nc1ccccc1)c1ccc2c(c1)S(=O)(=O)N=CN2C1CC1
> 250 | CNC1(C(=O)O)CCN(OC)CC1
151 to 152 | CCOC(=NC(=O)c1cc(Cl)nc(Cl)c1)N1Cc2ccccc2-c2ccccc2C1
79 to 82 | COC(=O)C(Oc1ccc(Cl)cc1)c1ccc(Oc2cccc(C(F)(F)F)c2)cc1 (stereo not drawn)
148 to 150 | C=C(c1cc(C(C)(C)C)cc2c1CCC2(C)C)c1sccc1C=O
74 to 75 | CCOC(=O)c1cnoc1-c1ccc(Cl)s1
104 to 106 | NNc1nc(F)c(CC(F)(F)F)cc1Cl
204 to 208 | CCS(=O)(=O)Nc1ccc(C(=O)CN2CCN(c3ccncc3)CC2)cc1
140 to 142 | COc1c(CN)c2c(c3c1OC(C)(C)C3)C(c1ccccc1)=NC(C)(C)C2
187 to 188 | Cc1c(Br)c2c(c(C)c1NC(=O)OC(C)(C)C)C(O)C(C)(C)O2 (stereo not drawn)
270 | O=C(Nc1cc(Cl)cc(Cl)c1)C1=C(O)N2CCCN=C2S1
134 to 136 | FC(F)(F)c1cc(Cl)c(-n2cc(C3CC3(Cl)Cl)nn2)c(Cl)c1 (stereo not drawn)
165 to 172 | CCNC(=O)c1c(C2CC2)nc(CC)n1Cc1ccc2oc(-c3ccccc3NS(=O)(=O)C(F)(F)F)cc2c1
164 to 166 | CCCCC(=N)NC(=S)Nc1ccc(Cl)cc1
79 | CCOC(=O)NOC(=O)c1ccc(Cl)cc1
290 to 292 | Nc1ccc2c(c1)CCc1cc(=O)[nH]nc1-2
52 to 55 | CCCCN(C1CS(=O)(=O)c2cc([N+](=O)[O-])ccc21)S(C)(=O)=O (stereo not drawn)
114 to 117 | Cc1cc(Oc2ccc([N+](=O)[O-])c(C)c2)n[nH]1
188 to 190 | CC[C@@H]1O[C@](/C=C/C2CC2)(C(F)(F)F)c2c(ccc3c2OCO3)NC1=O (relative stereo)
266 | N#Cc1c(N2CCN(C(=O)c3cccs3)CC2)c2cc(Cl)ccc2n(Cc2ccccc2)c1=O
113 to 115 | COc1ccccc1C1(C(C)C)C(=O)N(C)c2ccccc21 (stereo not drawn)

melting point [°C] | Structure (SMILES)
194 to 197 | COc1ccc(C2C(C#N)=C(N)OC3=C2C(=O)CC(c2cccc4ccccc24)C3)cc1 (stereo not drawn)
137 to 138 | Cc1nc(C)c(CC(=O)O)c(-c2ccccc2)c1CC(=O)O
108 to 110 | OC(C=Cc1ccccc1)Cn1ccnc1 (stereo not drawn)
255 to 260 | CCOP(=O)(OCC)c1cc2cc(N)c(Cl)cc2[nH]c1=O
74 to 76 | Nc1c(Cl)cc(C(O)CNCCCCCCOCCCCc2ccccc2)cc1Cl (stereo not drawn)
265 to 266 | O=C(Nc1ccccc1NS(=O)(=O)c1ccc([N+](=O)[O-])cc1)c1ccc(F)cc1
146 to 148 | Cc1ccc(C2CCN(C[C@H](O)COc3cccc4oc(S(=O)(=O)N(C)C)cc34)CC2)cc1C
49 to 50 | COC(=O)C1C(=O)CCC1CC#N (stereo not drawn)
219 | CNNc1ncn(-c2ccccc2)c(=O)n1
101 to 102 | CCOC(=O)Cc1c(C)n(Cc2ccc(SC)cc2)c2ccc(OCc3nc4ccccc4s3)cc12
84 to 85 | COC(=O)CCON1C(C)(C)CC(OCc2ccc(COC3CC(C)(C)N(OCCC(=O)OC)C(C)(C)C3)cc2)CC1(C)C
179 to 181 | Cc1cc(-n2c(C)ccc2-c2ccc(S(C)(=O)=O)c(F)c2)ccc1-c1cscn1
161 to 163 | CC(=N)NS(=O)(=O)C=Cc1ccc(Cl)cc1
254 to 256 | CS(=O)(=O)c1cc(C(=O)O)cc(NCc2ccccc2)c1Cl
60 | COC(=O)Cc1ccc(OCCNC(=O)C2Cc3ccccc3N2S(=O)(=O)c2ccc(-c3cc(C(F)(F)F)ccc3Cl)cc2)cc1 (stereo not drawn)
182 | Oc1ccc(Cn2ccnc2)c2cccnc12
162 | COc1ccc(-c2nn(Cc3cccnc3)c(=O)cc2-c2ccncc2)cc1
142 to 143 | CC(=O)c1ccc(Oc2ccc(F)cc2F)c(NS(C)(=O)=O)c1
156 to 157 | Cc1ccc(C)c(-c2cccc(C=CC(=O)O)c2)c1
201 to 206 | Cc1ccc(S(=O)(=O)NCl)cc1
194 to 196 | CC1=N/C(=C\c2c[nH]c3cc(C)ccc23)C(=O)O1
112 | Cc1c(Cl)cccc1S(=O)(=O)Nc1ccc2oncc2c1
146 to 147 | O=C(O)c1ccc(NCCCOc2cccc3ccccc23)cc1

melting point [°C] | Structure (SMILES)
115 | COc1nc(NC(=O)NS(=O)(=O)c2c(Br)csc2C(=O)c2cccs2)nc(OC)n1
61 to 63 | C=CC1(NC(=O)OC)CC(C)(C)CC(C)(C)C1
136 to 137 | Cc1oc(-c2ccccc2)nc1COc1ccc(Cc2nc(CCC(=O)O)c(-c3ccccc3)o2)cc1
197 | OC[C@H]1OC[C@@H](n2cnc3cc(Cl)c(Cl)cc32)C[C@@H]1O
68 to 70 | CSCCC1NCCNC1=O (stereo not drawn)
45 | C#CCn1cc(CO)c(C(F)(F)F)c1
209 to 211 | Cc1c(C)c(N2C(=O)c3ccccc3C2=O)c(C)c2c1OC(C)(C)C2c1ccc(F)cc1 (stereo not drawn)
60 to 63 | COC(=O)CNc1cccc(C(F)(F)F)c1
96 to 98 | CC(=O)NCC1CC1c1cccc2nc(C)sc12 (stereo not drawn)
190 to 192 | CC1(C)CC(=O)Nc2ccc(-c3cccc(F)c3)cc21
97 to 99 | CCCCc1nc2cccc(C(=O)OC)c2n1Cc1ccc(-c2ccccc2N)cc1
186 to 187 | O=C(NC(=O)c1c(F)cccc1F)Nc1ccc(S(=O)(=O)C(F)(F)C(F)F)cc1F
290 to 291 | Cc1cc(-c2nnn[nH]2)cc2c(=O)c3cccnc3oc12
121 to 123 | CCOC(=O)c1nc2cc(C)sc2nc1N
63 to 65 | CC(=O)c1ccc(OCC(O)COc2ccccc2)cc1O (stereo not drawn)
158 to 160 | O=c1[nH]cccc1Cc1ccccc1
208 to 209 | NC(=O)[C@@H]1C[C@]2(NC(=O)N(CCCN3CCC(O)CC3)C2=O)c2cc(F)ccc2O1
132 to 134 | COc1ccc(C(C)N(O)C(N)=O)cc1 (stereo not drawn)
145 to 146 | O=C(NC1CCN(CCCOc2ccccc2-c2ncc(C(=O)O)c(O)n2)CC1)c1ccccc1
166 to 168 | CCOCc1nc2c(N)nc3cc(Br)cnc3c2n1CC1(O)CCCC1
96 to 97 | CCOC(=O)C1=C(C(OCC)OCC)NC(C)=C(C(=O)OCCCl)C1c1cccc([N+](=O)[O-])c1 (stereo not drawn)

Structure (SMILES) | melting point [°C]
O=CN=C1SCCN1Cc1ccc(Cl)nc1 | 99 to 100
Cc1noc(-c2ncn3c2[C@@H]2CCN2C(=O)c2c(Cl)cccc2-3)n1 | 239 to 240
Cc1cc(C)n(-c2cc(F)c(C#N)cc2F)n1 | 122
COC(=O)CN1CN(c2ccccc2)C2(CCN(Cc3cccc4ccccc34)CC2)C1=O | 122 to 135
NCCCP(=O)(O)C1SCCS1 | 272 to 274
NS(=O)(=O)NC(c1ccccc1)P(=O)(Oc1ccccc1)Oc1ccccc1 (stereo not drawn) | 171 to 174

— a melting point compilation (Tetko et al.; mined from patent text by program, amines drawn as free bases though some values may be those of a salt)
